Measured values published in US20250059196A1 (SHANGHAI HANSOH BIOMEDICAL CO., LTD., priority 2021, published 2025).
Like-named read-outs stand apart in the source and are kept apart here.

Tests used:
[1] = target: Recombinant human MALT1/MLT protein (Homo sapiens (Human), UniProt Q9UDY8); test: Inhibitory effect on MALT1 enzyme activity (Ac-LRSR-AMC substrate, fluorescence 460 nm); assay type: biochemical; settings: 10 nM FL MALT1, Ac-LRSR-AMC substrate, 50 min pre-incubation, 4 h reaction
Description: Ac-LRSR-AMC was used as the substrate to test the IC50 of the inhibitory activity of compounds on MALT1 enzyme activity at their Km concentration.
Ac-LRSR-AMC was used as the substrate which was digested by MALT1 to produce products, which produced fluorescence that could be detected at 460 nm. The highest concentration of the compound detected was 1000 nM, 3-fold dilution, a total of 11 concentrations (1000 nM-0.017 nM). The reaction system is 10 nM FL MALT1 protein, […] Ac-LRSR-AMC, 50 mM Tris pH 7.5, 0.6M Citrate, 1 mM DTT, 1 mM EDTA, 0.05% BSA and 1.5% DMSO. The compound and the enzyme were pre-incubated at room temperature for 50 min. The substrate was then added and the reaction was carried out for 4 h.
The original data (460 nm reading) was calculated according to the following formula to obtain the inhibition rate.
(§1) Log(inhibitor) vs. response—Variable slope (four parameters) in GraphPad Prism 6 was used to perform fitting equation analysis on compound concentration and corresponding inhibition rate, the curve was fit and compound IC50 value was obtained.
(§2) The fitting calculation equation is Y=Bottom+(Top−Bottom)/(1+10^((Log IC50−X)*HillSlope))

[2] = system: OCI-Ly3 cells; test: Inhibition of proliferation of OCI-Ly3 cells (CellTiter-Glo); assay type: cell-based, human; settings: 96 h incubation, read-out: Inhibition test of proliferation of OCI-Ly3 cells IC50
Description: The compound's inhibitory effect on the proliferation of TMD8 and OCI-Ly3 cells was evaluated through cell proliferation inhibition experiments.
The compound's inhibitory effect on the proliferation of TMD8 and OCI-Ly3 cells was detected by the CellTiter-Glo method. The highest concentration of the compound detected was 1000 nM, 3-fold dilution, a total of 9 concentrations (1000 nM-0.15 nM). After the cells were plated at an appropriate density, compounds were added the next day and incubated for 96 h before detection using the CellTiter-Glo Luminescent detection kit.
as §1, §2

[3] = target: MALT1 protease activity in TMD8 cells (substrate BCL-10) (Homo sapiens (Human), UniProt Q9UDY8); test: Intracellular MALT1 protease activity detection (BCL-10 ELISA in TMD8 cells); assay type: cell-based; settings: undigested BCL-10 by ELISA, 30 min compound then 2 h stimulation cocktail, read-out: Bcl10 TMD8 IC50
Description: By detecting the digestion level of the substrate BCL-10 by MALT1 in TMD8 cells, the inhibitory effect of the compound on MALT1 protease activity in the cellular environment was tested.
The ELISA sandwich method was used to detect the content of undigested BCL-10 protein in cells and determine the inhibitory effect of compounds on intracellular MALT1 protease activity. The highest concentration of the compound detected was 10000 nM, 3-fold dilution, a total of 9 concentrations (10000 nM-1.5 nM). Cells were plated at an appropriate density. Compounds of corresponding concentrations were first added for action for 30 min, and then eBioscience cell stimulation cocktail was added to stimulate the cells for 2 h. Cell lysate was then collected. The cell lysate was added to the assay plate previously coated with recombinant BCL-10 antibody (Abcam, #Ab33905) and incubated at 4° C. overnight. The next day, BCL-10 detection antibody (Santacruz, #Sc-5273HRP) was added and incubated for 2 h, TMB substrate was used for color development for about 30 min, then the color development was terminated, and a microplate reader was used for detection.
2) Curve fitting: Log(inhibitor) vs. response—Variable slope (four parameters) in GraphPad Prism 6 was used to perform fitting equation analysis on compound concentration and corresponding inhibition rate, the curve was fit and compound IC50 value was obtained.
as §2

[4] = Pharmacokinetics of oral administration in Balb/C mice; assay type: in vivo; design: Cmax: unit: ng/mL; settings: 30 mg/kg, P.O., plasma
Description: Balb/C mice were used as test animals to study the pharmacokinetic behavior of the compound in the plasma of mice after oral administration at a dose of 30 mg/kg.
3 Balb/C mice (3/example), male, from Shanghai Jiesijie Experimental Animal Co., Ltd., animal production license number (SCXK (Shanghai) 2013-0006 N0.311620400001794).
3 Balb/C mice, male; p.o. respectively at a dose of 30 mg/kg and an administration volume of 10 mL/kg after the mice were fasted overnight.
Before and after administration of mice, 0.1 mL of blood was collected from the orbit at 0, 0.5, 1, 2, 4, 6, 8 and 24 h, and placed in EDTA-K2 test tubes, which was centrifuged at 6000 rpm at 4° C. for 6 min to separate plasma which was stored at −80° C.
• 1) 160 μL of acetonitrile was added to 40 μL of plasma sample for precipitation, and same was mixed and centrifuged at 3500×g for 5 to 20 min. • 2) 100 μL of the treated supernatant solution was taken and subjected to LC/MS/MS to analyze the concentrations of the test compounds.
• Liquid phase conditions: Shimadzu LC-20AD pump • Mass spectrometry conditions: AB Sciex API 4000 mass spectrometer • Chromatographic column: Phenomenex Gemiu 5 um C18 50×4.6 mm • Mobile phase: liquid A is 0.1% aqueous formic acid solution, liquid B is acetonitrile • flow rate: 0.8 mL/min • Elution time: 0-4.0 min, the eluent is as follows:
The main pharmacokinetic parameters were calculated using WinNonlin 8.2.

[5] = Caco-2 bidirectional permeability test; settings: human, Caco-2
Description: The purpose of this experiment is to test the bidirectional permeability of the compound through the Caco-2 cell model and evaluate whether the compound is transported by efflux transporters.
Liquid chromatography-mass spectrometer, centrifuge, vortexer, pipette, 96-well test plate (HTS Transwell Plate), acetonitrile solution containing internal standard, Caco-2 cells (ATCC), Hank's balance solution (HBSS), fluorescent yellow (LY), dimethyl sulfoxide (DMSO).
108 μL of transport buffer (HBSS containing 10 μM of the example compound) was added to the administration end of A to B. • b. 300 μL of transport buffer (HBSS containing DMSO) was added to the receiving end of A to B. • c. 300 μL of transport buffer (HBSS containing 10 μM example compound) was added to the administration end of A to B. • d. 108 μL of transport buffer (HBSS containing DMSO) was added to the receiving end of A to B. • e. incubation was performed for 90 min. • d. a sample was taken, processed and detected with mass spectrometry.
• Instruments: Liquid Chromatography; • Chromatographic column: Waters XSelect HSS T3 2.5 μm (2.1×50 mm); • Mobile phase: Phase A: 0.1% formic acid in pure water; Phase B: 0.1% formic acid in acetonitrile.
• Instruments: AP16500+liquid chromatography-mass spectrometer; • The ion source is electrospray ionization source (ESI); • The detection method is positive ion detection;
The scanning method is selected reaction monitoring (MRM).

[6] = male, mouse, po, read-out: AUC 0-t
[7] = male, mouse, po, read-out: Cmax
[8] = male, mouse, po, read-out: Tmax

Sequence of MALT1 protease activity in TMD8 cells (substrate BCL-10) (Q9UDY8 whole entry): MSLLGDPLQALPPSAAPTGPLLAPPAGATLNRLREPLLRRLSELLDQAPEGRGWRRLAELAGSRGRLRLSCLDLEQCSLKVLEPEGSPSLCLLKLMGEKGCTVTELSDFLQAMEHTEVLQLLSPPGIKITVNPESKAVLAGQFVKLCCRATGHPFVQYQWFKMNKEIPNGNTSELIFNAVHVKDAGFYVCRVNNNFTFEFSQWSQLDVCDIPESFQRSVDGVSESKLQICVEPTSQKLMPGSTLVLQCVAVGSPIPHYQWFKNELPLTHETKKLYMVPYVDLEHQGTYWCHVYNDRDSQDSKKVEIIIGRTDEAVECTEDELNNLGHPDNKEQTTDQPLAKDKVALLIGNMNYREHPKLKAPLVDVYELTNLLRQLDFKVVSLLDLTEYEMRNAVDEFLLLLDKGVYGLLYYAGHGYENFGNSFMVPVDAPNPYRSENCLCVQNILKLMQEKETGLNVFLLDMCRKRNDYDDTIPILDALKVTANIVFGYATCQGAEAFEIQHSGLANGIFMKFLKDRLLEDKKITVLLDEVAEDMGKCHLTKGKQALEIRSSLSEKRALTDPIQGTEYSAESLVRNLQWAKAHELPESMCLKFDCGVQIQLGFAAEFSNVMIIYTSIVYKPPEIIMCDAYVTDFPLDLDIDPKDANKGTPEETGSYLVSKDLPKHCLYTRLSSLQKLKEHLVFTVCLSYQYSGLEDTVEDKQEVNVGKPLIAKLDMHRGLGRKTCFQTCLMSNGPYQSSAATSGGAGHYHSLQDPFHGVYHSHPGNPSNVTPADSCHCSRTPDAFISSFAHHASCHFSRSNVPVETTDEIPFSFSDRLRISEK
Sequence of Recombinant human MALT1/MLT protein (Q9UDY8 whole entry): as above

IC50 [1] [nM]	IC50 ([2]; Homo sapiens) [nM]	IC50 [3] [nM]	AUC(0-inf) ([4]; male, mouse, po) [ng·h/mL]	half-life ([4]; male, mouse, po) [h]	AUC(0-t) [4, 6] [ng·h/mL]	Cmax [4, 7] [ng/mL]	MRT ([4]; male, mouse, po, read-out: MRT) [h]	Tmax [4, 8] [h]	SMILES	further results
15	120	36	64100	2.1	64100	7180	5.2	2	O=C(Nc1cnc(-n2nccn2)c(Cl)c1)c1cnn(-c2ccc3c4c(cccc24)C(=O)N3)c1C(F)(F)F [Example 5, N-(6-(2H-1,2,3-triazol-2-yl)-5-chloropyridin-3-yl)-1-(2-oxo-1,2-dihydrobenzo[cd]indol-6-yl)-5-trifluoromethyl-1H-pyrazole-4-carboxamide]	Papp A→B at 90 min, 10 µM [5]: 1 ×10⁻⁶ cm/s; Papp B→A at 90 min, 10 µM [5]: 7.03 ×10⁻⁶ cm/s; efflux ratio at 90 min, 10 µM [5]: 7.09
107	272		67800	6.2	62700	4380	9.4	4	O=C(Nc1cc(Cl)n2ncc(Cl)c2c1)c1cnn(-c2ccc3c4c(cccc24)C(=O)N3)c1C(F)(F)F [Example 13, N-(3,7-dichloropyrazolo[1,5-a]pyridin-5-yl)-1-(2-oxo-1,2-dihydrobenzo[cd]indol-6-yl)-5-trifluoromethyl-1H-pyrazole-4-carboxamide]	Papp A→B at 90 min, 10 µM [5]: 7.63 ×10⁻⁶ cm/s; Papp B→A at 90 min, 10 µM [5]: 19.1 ×10⁻⁶ cm/s; efflux ratio at 90 min, 10 µM [5]: 2.5
28	97	73	105000	2.1	105000	15300	4.3	2	O=C(Nc1cnc(-n2nccn2)c(C(F)F)c1)c1cnn(-c2ccc3c4c(cccc24)C(=O)N3)c1C(F)(F)F [Example 49, N-(5-difluoromethyl-6-(2H-1,2,3-triazol-2-yl)-pyridin-3-yl)-1-(2-oxo-1,2-dihydrobenzo[cd]indol-6-yl)-5-trifluoromethyl-1H-pyrazole-4-carboxamide]	
31	152	93							O=C(Nc1cnc(-n2nccn2)c(C(F)(F)F)c1)c1cnn(-c2ccc3c4c(cccc24)C(=O)N3)c1C1CC1 [Example 56, N-(6-(2H-1,2,3-triazol-2-yl)-5-(trifluoromethyl)pyridin-3-yl)-5-cyclopropyl-1-(2-oxo-1,2-dihydrobenzo[cd]indol-6-yl)-1H-pyrazole-4-carboxamide]	
16	132	57							O=C(Nc1cnc(-n2nccn2)c(Cl)c1)c1cnn(-c2ccc3c4c(cccc24)C(=O)N3)c1C1CC1 [Example 60, N-(5-chloro-6-(2H-1,2,3-triazol-2-yl)-pyridin-3-yl)-5-cyclopropyl-1-(2-oxo-1,2-dihydrobenzo[cd]indol-6-yl)-1H-pyrazole-4-carboxamide]	
28	154	58							O=C(Nc1ccc(-n2nccn2)c(Cl)c1)c1cnn(-c2ccc3c4c(cccc24)C(=O)N3)c1C1CC1 [Example 63, N-(3-chloro-4-(2H-1,2,3-triazol-2-yl)phenyl)-5-cyclopropyl-1-(2-oxo-1,2-dihydrobenzo[cd]indol-6-yl)-1H-pyrazole-4-carboxamide]	

SMILES	IC50 [1] [nM]	IC50 ([2]; Homo sapiens) [nM]	IC50 [3] [nM]	AUC(0-inf) ([4]; male, mouse, po) [ng·h/mL]	half-life ([4]; male, mouse, po) [h]	AUC(0-t) [4, 6] [ng·h/mL]	Cmax [4, 7] [ng/mL]	MRT ([4]; male, mouse, po, read-out: MRT) [h]	Tmax [4, 8] [h]	further results
Cc1ncn(-c2ncc(NC(=O)c3cnn(-c4ccc5c6c(cccc46)C(=O)N5)c3C(F)(F)F)cc2Cl)n1 [Example 46]	93		80							IC50 [2]: 222 nM
O=C(Nc1cnc(-n2nccn2)c(C(F)(F)F)c1)c1cnn(-c2cnc3c4c(cccc24)C(=O)N3)c1C(F)(F)F [Example 68]	51		72							IC50 [2]: 271 nM; AUC0-∞ [4]: 10,388 ng/mL*hr; AUC(0-t) [4]: 10,168 ng/mL*h; Cmax [4]: 2,670 ng/mL; MRT [4]: 2.6 h; T1/2 [4]: 1.2 h; Tmax [4]: 0.5 h
